Here are results for six compounds from patent US20040224876A1, “Combination therapy for the treatment of immunoinflammatory disorders” (priority 2003, published 2004).

Several values for one entry are separate records, joined by “and”; a condition that tells them apart may be missing. Identical values can stand only once. Like-named read-outs stand apart in the source and are kept apart here.

Series [1] deals with TNFα secretion, human white blood cells. Conditions: cyclosporine 0 μM.
Protocol: Drugs were added to the indicated concentration. […] The plate was then washed again with 0.1% Tween 20/PBS. An HRP-luminescent substrate was added to each well, and the light intensity of each well was measured using a plate luminometer.
(§1) The percent inhibition (% I) for each well was calculated using the following formula:
(§2) The average untreated well value (avg. untreated wells) is the arithmetic mean of 40 wells from the same assay plate treated with vehicle alone.
For series [2] the test system is unchanged. The series is described as follows: TNFα secretion, lipopolysaccharide stimulation, human white blood cells (ELISA). On the technique in general: An ELISA detects its analyte on a solid surface through an enzyme-linked reagent.
Protocol: (§3) Various concentrations of each test compound were added at the time of stimulation. […] After the plate was washed with 0.1% Tween 20/PBS, an HRP-luminescent substrate was added to each well and light intensity measured using a LJL Analyst plate luminometer.
as §1, §2
The subject of series [3] is IL-2 secretion, human white blood cells. The series is described as follows: IL-2 secretion by PMA/ionomycin-stimulated human white blood cells (ELISA).
Protocol: as §3, §1, §2
For series [4] the following is noted: cited from earlier work.
Where [5] appears, read: read-out: % Inhibition of IL-2 secretion.
[6] abbreviates: read-out: % Inhibition of TNFα secretion, cyclosporine A 0 μM, chlorpromazine […].
[7] abbreviates: read-out: % Inhibition of TNFα secretion, cyclosporine A 0.00 μM, ethopropazine […].
Where [8] appears, read: read-out: % Inhibition of IL-2 secretion, cyclosporine A 0.00 μM, ethopropazine […].

For the compound `CCOC(=O)N1CCC(=C2c3ccc(Cl)cc3CCc3cccnc32)CC1` [Loratadine], the “Reduction of TNFα secretion” value in series [1] (loratadine 0.2 μM) is on record as 0; in series [1] (loratadine 13 μM) it was 30.1; in series [1] (loratadine 26 μM), 40.7.

Consider `CN(C)C(=O)C(CCN1CCC(O)(c2ccc(Cl)cc2)CC1)(c1ccccc1)c1ccccc1` [Loperamide], for which the inhibition (in general, the drop in the measured response relative to a control, in per cent) at 35 µM in series [2] (read-out: % Inhibition of TNFα secretion) was 87.3%. In series [3] (setting [5]), the inhibition at 17 µM was 4.2%; the inhibition at 35 µM is 42.4%; the inhibition at […] was -14.9% and -15.5% and -10.5% and -15.4% (2×) and -13.5%.

In the case of `CN(C)CCCN1c2ccccc2Sc2ccc(Cl)cc21` [Chlorpromazine], in series [2] (setting [6]), the inhibition at 17 µM amounted to 46.2% and the inhibition at 35 µM worked out at 45.5%. Further, the inhibition at 0.6 µM in series [3] (read-out: % Inhibition of IL-2 secretion, cyclosporine A 0 μM, chlorpromazine 0.6 μM) is -13.3%. Moreover, the inhibition at 5 µM in series [3] (read-out: % Inhibition of IL-2 secretion, cyclosporine A 0 μM, chlorpromazine 5.0 μM) is -13.7%. For the same compound, the inhibition at 20 µM in series [3] (read-out: % Inhibition of IL-2 secretion, cyclosporine A 0 μM, chlorpromazine 20.0 μM) was 24.7%. The inhibition at 40 µM in series [3] (read-out: % Inhibition of IL-2 secretion, cyclosporine A 0 μM, chlorpromazine 40.0 μM) was 80.7%. Further, the inhibition at 80 µM in series [3] (read-out: % Inhibition of IL-2 secretion, cyclosporine A 0 μM, chlorpromazine 80.0 μM) was 94.7%.

As to `C=CC[C@@H]1/C=C(\C)C[C@H](C)C[C@H](OC)[C@H]2O[C@@](O)(C(=O)C(=O)N3CCCC[C@H]3C(=O)O[C@H](/C(C)=C/[C@@H]3CC[C@@H](O)[C@H](OC)C3)[C@H](C)[C@@H](O)CC1=O)[C@H](C)C[C@@H]2OC` [Tacrolimus], the inhibition at 0.0004 µM in series [3] (PBMC, read-out: % Inhibition IL-2 PBMC PI, tacrolimus 0.0004 μM, fluvoxamine μM: 0,0.16,0.31,0.62,1.2,2.5,5,10,20) was 0.73%. Besides, in series [3] (PBMC, read-out: % Inhibition IL-2 PBMC PI, tacrolimus 0.0008 μM, fluvoxamine μM: 0,0.16,0.31,0.62,1.2,2.5,5,10,20), the inhibition at 0.0008 µM was -4.4%. Further, the inhibition at 0.05 µM in series [3] (PBMC, read-out: % Inhibition IL-2 PBMC PI, tacrolimus 0.05 μM, fluvoxamine μM: 0,0.16,0.31,0.62,1.2,2.5,5,10,20) is 87%; in series [3] (read-out: maximal inhibition of IL-2 production, tacrolimus 0.05 μM alone), 87%.

Consider `CO[C@H]1C[C@@H]2CC[C@@H](C)[C@@](O)(O2)C(=O)C(=O)N2CCCC[C@H]2C(=O)O[C@H]([C@H](C)C[C@@H]2CC[C@@H](O)[C@H](OC)C2)CC(=O)[C@H](C)/C=C(\C)[C@@H](O)[C@@H](OC)C(=O)[C@H](C)C[C@H](C)/C=C/C=C/C=C/1C` [Rapamycin], for which the “absorption after oral administration” value in series [4] is “absorbed rapidly and completely”.

Turning to `CCN(CC)C(C)CN1c2ccccc2Sc2ccccc21` (centres unmarked) [Ethopropazine], in series [2] (setting [7]), the inhibition at 17 µM amounted to 24.3% and the inhibition at 35 µM was determined as 69.6%. In series [3] (setting [8]), the inhibition at 17 µM came out at 21% and the inhibition at 35 µM was 52.3%.
